Data from ChEMBL document CHEMBL1201862, “PubChem BioAssay data set” (2004).
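Growth conditions: 96-well plates. Treatment: test compound, 48 hours, 5 concentrations. Analysis: linear interpolation between bracketing concentrations; unreached endpoints set to highest concentration. Here, GI50 denotes the concentration required for 50% inhibition of growth.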 Active and inactive are the calls of the source. No stated cut-off is given here; in the data, active = GI50 up to about 1.1 µM and inactive = higher.

What was measured:
Test in all cases: NCI-60 cell line screen, 48 h
[1] = tested on: U-251
[2] = tested on: COLO 205
[3] = tested on: HOP-62
[4] = tested on: SK-MEL-5
[5] = tested on: HCT-116
[6] = tested on: CCRF-CEM
[7] = tested on: SF-539
[8] = tested on: SK-MEL-2
[9] = tested on: Malme-3M
[10] = tested on: NCI-H226
[11] = tested on: NCI-H522
[12] = tested on: OVCAR-5
[13] = tested on: UACC-257
[14] = tested on: SK-OV-3
[15] = tested on: NCI-H460
[16] = tested on: UO-31
[17] = tested on: RXF 393
[18] = tested on: SN12C
[19] = tested on: OVCAR-8
[20] = tested on: LOX IMVI

Measured: GI50

Oc1cc(O)cc(/C=C/c2ccc(O)c(O)c2)c1 [PICEATANNOL]
inactive: [1] 15.4 µM | [2] 23.3 µM | [3] 16.3 µM | [4] 11.1 µM | [5] 7.45 µM | [6] 4.32 µM | [7] 8.91 µM | [8] 3.87 µM | [9] 26.1 µM | [10] 19.5 µM | [11] 2.75 µM | [12] 5.06 µM | [13] > 76.6 µM | [14] 18.9 µM | [15] 22.2 µM | [16] 10.4 µM | [17] 8.77 µM | [18] 12.4 µM | [19] 24.2 µM | [20] 11.9 µM
